Assay results reported in publication PMC4971055, “Identification and Characterization of the Corazonin Receptor and Possible Physiological Roles of the Corazonin-Signaling Pathway in Rhodnius prolixus” (Frontiers in Neuroscience, 2016).

Key:
Rhopr-CRZR-β = assay: bioluminescence (calcium mobilizing) functional receptor assay, Rhopr-CRZR-β in CHOK1-aeq cells; assay type: cell-based, Rhodnius prolixus; conditions: for bioluminescence response (receptor activation): every 5 s over 15 s
Description: (§1) The ORF of the two Rhopr-CRZR variants were amplified and a Kozak translation initiation sequence was introduced at the 5′ end using primers listed in Supplementary Table 2. The resulting product was cloned into pGEM-T Easy vector and subcloned into pIRES2-ZsGreen1 (Clontech, Mountain View, CA, USA).
(§2) Chinese hamster ovary (CHO) cells stably expressing aequorin (CHOK1-aeq) (Paluzzi et al., [2010]) were cultured in complete media (94% Dulbecco's Modified Eagle Medium Nutrient Mixture F12-Ham (DMEM/F12) (Life Technologies Corporation, Carlsbad, CA, USA), 5% heat-inactivated fetal bovine serum (FBS), and 1% penicillin/streptomycin) containing 200 μg/mL Geneticin. The cells were incubated at 37°C in 5% CO2, and then transiently transfected with the expression vector for the receptor transcript variants using X-tremeGENE 9 DNA transfection reagent (Roche Applied Science, Indianapolis, IN, USA) at a ratio of 2:1 (transfection reagent to expression vector) using the manufacturer recommended protocol. Cells were also transiently transfected with an empty expression vector as a negative control.
(§3) The bioluminescence assay was performed 72 h post-transfection. The cells were first harvested with PBS/EDTA solution and suspended in bovine serum albumin BSA media (DMEM/F12 containing 1% BSA and 1% penicillin/streptomycin). The cells were incubated in the dark for 4–5 h at room temperature with 5 μM (final concentration) coelenterazine h (Promega, Madison, WI, USA) and then diluted 10-fold using BSA media. Various peptide concentrations were prepared with BSA media and loaded in triplicates on an opaque 96-well microplate. Cells were loaded into each well using an automated injector unit and luminescence was recorded over 15 s using a Wallac Victor2 plate reader (Perkin Elmer, San Diego, CA, USA). The peptides used were Rhopr-CRZ (pQTFQYSRGWTNamide), Rhopr-AKH (pQLTFSTDWamide), and Rhopr-ACP (pQVTFSRDWNAamide). Wells containing only the BSA media served as a blank control while wells containing 25, 50, and 100 μM ATP served as positive controls. Dose-response curves were obtained by averaging three replica plates and the EC50 values were determined using Prism5 software.

Bombyx. mori = tested on: Bombyx. mori; design: method as in Hua et al., [2000]; Hansen et al., [2010]; conditions: ref Hua et al., [2000], Hansen et al., [2010]; cited from earlier work
Galleria mellonella = tested on: Galleria mellonella; design: method as in Hua et al., [2000]; Hansen et al., [2010]; conditions: ref Hua et al., [2000], Hansen et al., [2010]; cited from earlier work
[1] = tested on: dorsal vessel of adult R. prolixus; assay: heartbeat assay in vitro; design: species or system Rhodnius prolixus; conditions: 10^−8 M Rhopr-CRZ; for increase in heartbeat frequency in vitro: compared to saline, n = 5
Description: Adult R. prolixus were anesthetized briefly with CO2 and injected with 2 μL of 2 μg/μL of dsCRZR or dsARG into the thorax using a 5 μL Hamilton syringe. Insects were left for 30 min at room temperature to recover and then kept in an incubator at 28°C on a 16 h: 8 h light/dark cycle. To determine knockdown efficiency, qPCR was performed 3 days post-injection.
Adult R. prolixus injected 3 days earlier with either dsCRZR or dsARG were dissected from the ventral surface under physiological saline (150 mM NaCl, 8.6 mM KCl, 2 mM CaCl2, 4 mM NaHCO3, and 8.5 mM MgCl2, 5 mM HEPES, pH 7.0). The digestive and reproductive systems were removed to expose the dorsal vessel. Electrodes attached to an impedance converter (UFI model 2991, Morro Bay, CA, USA) were positioned on either side of the dorsal vessel between the sixth and fifth abdominal segments. The heartbeat frequency was left to stabilize in 50 μL saline and the frequency of heartbeat measured from the traces recorded on a linear Flat-bed single channel chart recorder. The saline was then exchanged for 50 μL of 10^−8 M CRZ and the heartbeat frequency was again measured. The response to 10^−8 M CRZ was quantified by measuring the increase in heartbeat frequency compared to saline control.

5th instar R. prolixus = conditions: in vitro in 5th instar R. prolixus; ref Patel et al., [2014]; cited from earlier work
Excerpt: The percent knockdown of Rhopr-CRZR transcript after injection of dsCRZR into adult R. prolixus was quantified by qPCR in the dorsal vessel. […] The physiological effects of this decrease in Rhopr-CRZR on heartbeat frequency was studied in vivo and in vitro in adult R. prolixus.

Periplaneta americana = tested on: Periplaneta americana; design: method as in Veenstra, [1989]; conditions: cockroach Periplaneta americana; ref Veenstra, [1989]; cited from earlier work
Manduca sexta = tested on: Manduca sexta; design: method as in Kim et al., [2004]; conditions: ref Kim et al., [2004]; cited from earlier work
Rhopr-CRZR-α = assay: bioluminescence (calcium mobilizing) functional receptor assay, Rhopr-CRZR-α in CHOK1-aeq cells; assay type: cell-based, Rhodnius prolixus; conditions: for bioluminescence response (receptor activation): every 5 s over 15 s
Description: as §1, §2, §3

Gryllus bimaculatus = tested on: Gryllus bimaculatus; design: method as in Hua et al., [2000]; Hansen et al., [2010]; conditions: ref Hua et al., [2000], Hansen et al., [2010]; cited from earlier work

Substance | EC50 (Rhopr-CRZR-β; Rhopr-CRZR-β transiently expressed in CHOK1-aeq cells, coelenterazine h luminescence over 15 s, 72 h post-transfection, triplicates, three replica plates averaged) | time of maximum luminescence (Rhopr-CRZR-β; Rhopr-CRZR-β, during the first 5 s following activation, 10^−6 M, n = 3) | dark body coloration (Bombyx. mori) | dark body coloration (Galleria mellonella) | increase in heartbeat frequency in vitro ([1]; dsARG injected adults, vs dsCRZR unpaired t-test p = 0.0096) | heartbeat rate in vitro (in words) ([1]; dsARG injected insects, unpaired t-test p = 0.0096) | increase in heartbeat frequency in vitro ([1]; dsCRZR injected adults, vs dsARG unpaired t-test p = 0.0096) | heartbeat frequency (5th instar R. prolixus) | heartbeat rate (Periplaneta americana) | ecdysis behavior (Manduca sexta) | EC50 (Rhopr-CRZR-α; Rhopr-CRZR-α transiently expressed in CHOK1-aeq cells, coelenterazine h luminescence over 15 s, 72 h post-transfection, triplicates, three replica plates averaged) | time of maximum luminescence (Rhopr-CRZR-α; Rhopr-CRZR-α, during the first 5 s following activation, 10^−6 M, n = 3) | dark body coloration (Gryllus bimaculatus) | bioluminescence response (receptor activation) (Rhopr-CRZR-β; Rhopr-CRZR-β, 10^−6 M, n = 3) | bioluminescence response (receptor activation) (Rhopr-CRZR-α; Rhopr-CRZR-α, 10^−6 M, n = 3)
pQTFQYSRGWTNamide [Rhopr-CRZ, Rhodnius prolixus corazonin neuropeptide, p…amide] | 1 nM | ≤ 5 s | did not have such an effect | did not have such an effect | 7.33 ± 0.8 beats/min | significantly increased the heartbeat rate | 2 ± 0.9 beats/min | increase heartbeat frequency in a dose-dependent manner | increases the heartbeat rate | initiate ecdysis behavior | 2.7 nM | ≤ 5 s | did not have such an effect | – | –
pQLTFSTDWamide [Rhopr-AKH, R. prolixus adipokinetic hormone, pQLTFSTDWamide, reference compound] | – | – | – | – | – | – | – | – | – | – | – | – | – | without effect | without effect
pQVTFSRDWNAamide [Rhopr-ACP, R. prolixus AKH/CRZ-related peptide, p[…]amide, reference compound] | – | – | – | – | – | – | – | – | – | – | – | – | – | without effect | without effect
